Like-named read-outs stand apart in the source and are kept apart here.
Assays:
[1] = tested on: K562-BIM^intron+/− and K562-BIM^intron−/− cells; assay: Western blot of genome-edited K562 clones (BIMEL, cleaved caspase 3, PARP); type: cell-based, human; conditions: polymorphism-containing K562 cells; FIG. 16H
Description: Western blots were probed with antibody to BIMEL, cleaved caspase 3, PAR P, CrkL, and β-actin. […] Detection was performed with HRP-conjugated secondary antibodies that are specific to rabbit (Sigma) or mouse IgG (Santa Cruz). The membrane was visualized using the Western Lightning chemiluminescence reagent (PerkinElmer). […] In a 6-well plate, 1×10^6 cells were seeded into each well at a density of 2×10^5 cells/ml. After incubation with the appropriate drug for 48 hours, the cells were harvested for western analysis (FIG. 16).

HCC2279 cells [2] = assay: Western blot of apoptotic signaling in NSCLC cells (PARP, caspase 3 cleavage); type: cell-based, human; conditions: 0.5 μM gefitinib, […] ABT-737, 24 h, FIG. 25E
Description: FIG. 25E. Western blot showing levels of phospho-EGFR (p-EGFR), PAR P, and caspase 3 cleavage in cells treated for 24 h with 0.5 μM gefitinib, 2.5 μM ABT-737, or both.
Gefitinib and ABT-737 were resuspended in DMSO and kept at −20° C.
Western blotting was performed using antibodies against human BIM, CASPASE 3, cleaved CASPASE 3, PARP, phospho-EGFR (Y1068) (all from Cell Signaling Technology), and β-actin (Sigma).

HCC2279 cells [3] = assay: Trypan blue viability assay in NSCLC cells; type: cell-based, human
Description: FIG. 25F. Cell viability of PC9 and HCC2279 treated for 48 h with 0.5 μM gefitinib, 2.5 μM ABT-737, or both. Cell viability was determined by trypan blue exclusion, and plotted as a percentage of the no-drug control. (mean+/−standard error of the mean, *p=0.00004 with respect to gefitinib- and ABT-737-treated PC9 cells).
PC9 or HCC2279 cells were seeded in a 24-well plate at 5×10^5 or […] cells per wells in triplicate, and treated with DMSO (no drug), 0.5 μM gefitinib, ABT-737 or combination of gefitinib and ABT-737. Trypan blue staining was performed to assess the number of viable cells 48 hours post treatment.

KCL22 cells [4] = conditions: FIG. 15H and Table H13
Description: Apoptosis was measured using the Annexin V-FITC/7-AAD kit (Beckman Coulter) according to the manufacturer's instructions. Briefly, treated and untreated cells were Annexin V-FITC- and 7-AAD-stained in 1× binding buffer for 15 min at room temperature and then analyzed by flow cytometry.

CML patients = conditions: cited from earlier work
KCL22 cells [5] = assay: Growth curve of CML cell lines cultured with imatinib (FIG. 5F); conditions: KCL22 cells with deletion, 1 μM imatinib
Description: CML lines were obtained from ATCC (MEG-01 and KU812), JCRB (NCO2) and DSMZ (KCL22, K562, KYO1, JK1, BV173 and NALM1).

CN(C)CC[C@H](CSc1ccccc1)Nc1ccc(S(=O)(=O)NC(=O)c2ccc(N3CCN(Cc4ccccc4-c4ccc(Cl)cc4)CC3)cc2)cc1[N+](=O)[O-] [ABT-737]
ability of imatinib to activate apoptosis on addition of ABT-737 [1]: enhanced
TKI-induced apoptotic signaling on addition of ABT-737 (HCC2279 cells [2]): enhanced
TKI-induced cell death on addition of ABT-737 (HCC2279 cells [3]; HCC2279, 0.5 μM gefitinib, […] ABT-737, 48 h, FIG. 25F): enhanced

COc1cc2ncnc(Nc3ccc(F)c(Cl)c3)c2cc1OCCCN1CCOCC1 [gefitinib]
sensitivity of HCC2279 to gefitinib (HCC2279 cells [3]; HCC2279, NSCLC cell line carrying the BIM deletion polymorphism, FIG. 25): intrinsically resistant

Cc1ccc(NC(=O)c2ccc(CN3CCN(C)CC3)cc2)cc1Nc1nccc(-c2cccnc2)n1 [imatinib]
sensitivity of KCL22 cells to imatinib (KCL22 cells [4]): resistant
rate of incomplete cytogenetic responses (CML patients; East-Asian countries): ~50%
rate of incomplete cytogenetic responses (CML patients; Europe and North America): 26%
sensitivity of KCL22 cells (growth curve) (KCL22 cells [5]): resistant

From patent US20130324533A1, “METHOD OF DETECTING RESISTANCE TO CANCER THERAPY” (NATIONAL UNIVERSITY OF SINGAPORE, priority 2010, published 2013)
